The results in this text go back to patent US7166738B2, “Non-nucleoside reverse transcriptase inhibitors” (Roche Palo Alto LLC, priority 2004, dated 2007).

Each structure is given as a SMILES string.

Compound `CC(F)(F)c1cc(C#N)cc(Oc2c(Cl)ccc(CC(=O)Nc3ccc(S(N)(=O)=O)cc3Cl)c2F)c1` [Compound I-97, 2-{4-Chloro-3-[3-cyano-5-(1,1-difluoro-ethyl)-phenoxy]-2-fluoro-phenyl}-N-(2-chloro-4-sulfamoyl-phenyl)-acetamide] showed a melting point of 192 to 197.6 °C.
To `Cc1cc(S(N)(=O)=O)ccc1NC(=O)Cc1ccc(C)c(Oc2cc(Cl)ccc2Br)c1` [Compound I-31, 2-[3-(2-Bromo-5-chloro-phenoxy)-4-methyl-phenyl]-N-(2-methyl-4-sulfamoyl-phenyl)-acetamide] belongs 200.5 to 203.5 °C; to `COc1ccc(CC(=O)Nc2ccccc2Cl)cc1Oc1cc(Cl)cc(C#N)c1` [Compound I-61, 2-[3-(3-Chloro-5-cyano-phenoxy)-4-methoxy-phenyl]-N-(2-chloro-phenyl)-acetamide], 175.7 to 178.3 °C; to `COc1ccc(CC(=O)Nc2ccc(S(N)(=O)=O)cc2C)cc1Oc1cc(C#N)cc(C(F)F)c1` [Compound I-93, 2-[3-(3-Cyano-5-difluoromethyl-phenoxy)-4-methoxy-phenyl]-N-(2-methyl-4-sulfamoyl-phenyl)-acetamide], 175 to 177.2 °C.
Next, `CCc1ccc(CC(=O)Nc2ccc(S(N)(=O)=O)cc2)cc1Oc1c(Cl)cccc1Cl` [Compound I-20, 2-[3-(2,6-Dichloro-phenoxy)-4-ethyl-phenyl]-N-(4-sulfamoyl-phenyl)-acetamide]: 222.5 to 225 °C.
Next, `N#Cc1cc(Oc2cc(CC(=O)Nc3ccc(S(N)(=O)=O)cc3)ccc2Cl)cc(C(F)(F)F)c1` [Compound I-88, 2-[4-Chloro-3-(3-cyano-5-trifluoromethyl-phenoxy)-phenyl]-N-(4-sulfamoyl-phenyl)-acetamide]: 219 to 221.4 °C; `CNS(=O)(=O)c1ccc(NC(=O)Cc2ccc(Cl)c(Oc3cc(Cl)cc(C#N)c3)c2F)c(C)c1` [Compound I-108, 2-[4-Chloro-3-(3-chloro-5-cyano-phenoxy)-2-fluoro-phenyl]-N-(2-methyl-4-methylsulfamoyl-phenyl)-acetamide]: 204.4 to 207.3 °C.
Compound `Cc1cc(CC(=O)Nc2ccc(S(N)(=O)=O)cc2)cc(Oc2cc(C#N)ccc2Cl)c1` [Compound I-146, 2-[3-(2-Chloro-5-cyano-phenoxy)-5-methyl-phenyl]-N-(4-sulfamoyl-phenyl)-acetamide] came in with a melting point of 235.9 to 236.7 °C.
The compound `CCc1ccc(CC(=O)Nc2ccccc2Cl)cc1Oc1cc(C#N)cc(F)c1Cl` [Compound I-59, 2-[3-(2-Chloro-5-cyano-3-fluoro-phenoxy)-4-ethyl-phenyl]-N-(2-chloro-phenyl)-acetamide] gave a melting point of 142.1 to 142.8 °C.
Next, `Cc1cc(S(N)(=O)=O)ccc1NC(=O)Cc1ccc(Cl)c(Oc2cc(C#N)cc(C(F)(F)F)c2)c1` [Compound I-89, 2-[4-Chloro-3-(3-cyano-5-trifluoromethyl-phenoxy)-phenyl]-N-(2-methyl-4-sulfamoyl-phenyl)-acetamide]: 211.6 to 214.6 °C; `CCc1cc(CC(=O)Nc2ccc(S(N)(=O)=O)cc2Cl)cc(Oc2cc(C#N)ccc2Cl)c1` [Compound I-107, 2-[3-(2-Chloro-5-cyano-phenoxy)-5-ethyl-phenyl]-N-(2-chloro-4-sulfamoyl-phenyl)-acetamide]: 204 to 207 °C.
To `Cc1cc(S(N)(=O)=O)ccc1NC(=O)Cc1ccc(C)c(Oc2cc(Cl)cc(C#N)c2)c1F` [Compound I-74, 2-[3-(3-Chloro-5-cyano-phenoxy)-2-fluoro-4-methyl-phenyl]-N-(2-methyl-4-sulfamoyl-phenyl)-acetamide] belongs 230 to 232.2 °C; to `Cc1cc(N2CC[S+]([O-])CC2)ccc1NC(=O)Cc1ccc(C)c(Oc2cc(Cl)cc(C#N)c2)c1` [Compound I-160, 2-[3-(3-Chloro-5-cyano-phenoxy)-4-methyl-phenyl]-N-[2-methyl-4-(1-oxo-1λ^4-thiomorpholin-4-yl)-phenyl]-acetamide], 181.3 to 182.1 °C.
Next, `CCc1ccc(CC(=O)Nc2ccccc2Cl)cc1Oc1cc(Cl)ccc1C#N` [Compound I-18, 2-[3-(5-Chloro-2-cyano-phenoxy)-4-ethyl-phenyl]-N-(2-chloro-phenyl)-acetamide]: 168 to 169.9 °C; `CCCCC(=O)NS(=O)(=O)c1ccc(NC(=O)Cc2ccc(Cl)c(Oc3cc(Cl)cc(C#N)c3)c2F)c(Cl)c1.[Na]`: 157.6 to 159.2 °C.
Consider `CCc1ccc(CC(=O)Nc2ccccc2Cl)cc1Oc1cc(Br)cc(F)c1Cl` [Compound I-41, 2-[3-(5-Bromo-2-chloro-3-fluoro-phenoxy)-4-ethyl-phenyl]-N-(2-chloro-phenyl)-acetamide], for which the melting point was 146.6 to 147.2 °C.
To `CCc1ccc(CC(=O)Nc2ccc(S(N)(=O)=O)cc2C)cc1Oc1cc(Cl)cc(Br)c1Cl` [Compound I-36, 2-[3-(3-Bromo-2,5-dichloro-phenoxy)-4-ethyl-phenyl]-N-(2-methyl-4-sulfamoyl-phenyl)-acetamide] belongs 213.2 to 219.6 °C.
With `N#Cc1cc(Oc2c(F)c(CC(=O)Nc3ccc(S(N)(=O)=O)cc3)cc(Br)c2Br)cc(C(F)F)c1` [Compound I-114, 2-[4,5-Dibromo-3-(3-cyano-5-difluoromethyl-phenoxy)-2-fluoro-phenyl]-N-(4-sulfamoyl-phenyl)-acetamide], the melting point lay within 144 to 147 °C.
Next, `NS(=O)(=O)c1ccc(NC(=O)Cc2ccc(Cl)c(Oc3cc(Cl)cc(Cl)c3Cl)c2F)cc1` [Compound I-10, 2-[4-Chloro-2-fluoro-3-(2,3,5-trichloro-phenoxy)-phenyl]-N-(4-sulfamoyl-phenyl)-acetamide]: 247 to 249 °C.
Next, `Cc1cc(S(N)(=O)=O)ccc1NC(=O)Cc1cc(Oc2cccc(C#N)c2)c2occc2c1` [Compound I-145, 2-[7-(3-Cyano-phenoxy)-benzofuran-5-yl]-N-(2-methyl-4-sulfamoyl-phenyl)-acetamide]: 218.9 to 220 °C.
To `N#Cc1cc(C#N)cc(Oc2cc(CC(=O)Nc3ccc(S(N)(=O)=O)cc3)ccc2Cl)c1` [Compound I-2, 2-[4-Chloro-3-(3,5-dicyano-phenoxy)-phenyl]-N-(4-sulfamoyl-phenyl)-acetamide] belongs 218 to 219 °C.
Consider `Cc1cc(N2CCCCS2(=O)=O)ccc1NC(=O)Cc1ccc(C)c(Oc2cc(Cl)cc(C#N)c2)c1` [Compound I-158, 2-[3-(3-Chloro-5-cyano-phenoxy)-4-methyl-phenyl]-N-[4-(1,1-dioxo-1λ^6-[1,2]thiazinan-2-yl)-2-methyl-phenyl]-acetamide], for which the melting point lay in the range of 84.3 to 85.6 °C.
To `CCC(=O)NS(=O)(=O)c1ccc(NC(=O)Cc2ccc(Cl)c(Oc3cc(Cl)cc(C#N)c3)c2F)c(Cl)c1.[Na]` belongs 155.4 to 157.5 °C; to `CCc1ccc(CC(=O)Nc2ccc(S(N)(=O)=O)cc2)cc1Oc1cc(Cl)cc(C#N)c1` [Compound I-45, 2-[3-(3-Chloro-5-cyano-phenoxy)-4-ethyl-phenyl]-N-(4-sulfamoyl-phenyl)-acetamide], 170.7 to 172.4 °C; to `Cl.N#Cc1cc(Cl)cc(Oc2c(Cl)ccc(CC(=O)Nc3ccc(S(=O)(=O)NC(=O)CN4CCOCC4)cc3Cl)c2F)c1`, 223.3 to 225 °C.
`Cc1ccc(CC(=O)Nc2ccc(S(C)(=O)=O)cc2Cl)c(F)c1Oc1cc(C#N)cc(C(F)F)c1` [Compound I-112, N-(2-Chloro-4-methanesulfonyl-phenyl)-2-[3-(3-cyano-5-difluoromethyl-phenoxy)-2-fluoro-4-methyl-phenyl]-acetamide] displayed a melting point of 179.9 to 182 °C.
In the case of `CCc1ccc(CC(=O)Nc2ccc(S(N)(=O)=O)cc2)cc1Oc1cc(C#N)cc(F)c1Cl` [Compound I-49, 2-[3-(2-Chloro-5-cyano-3-fluoro-phenoxy)-4-ethyl-phenyl]-N-(4-sulfamoyl-phenyl)-acetamide], the melting point lay in the range of 167.9 to 170.5 °C.
To `CN(C(=O)Cc1ccc(Cl)c(Oc2cc(Cl)cc(C#N)c2)c1F)c1ccccc1Cl` [Compound I-111, 2-[4-Chloro-3-(3-chloro-5-cyano-phenoxy)-2-fluoro-phenyl]-N-(2-chloro-phenyl)-N-methyl-acetamide] belongs 134 to 137.1 °C.
Next, `CCC(=O)NS(=O)(=O)c1ccc(NC(=O)Cc2ccc(C)c(Oc3cc(Cl)cc(C#N)c3)c2F)c(Cl)c1.[Na]`: 158.8 to 162 °C; `CCc1ccc(CC(=O)Nc2ccc(S(N)(=O)=O)cc2Cl)cc1Oc1cc(C#N)cc(C#N)c1Cl` [Compound I-54, 2-[3-(2-Chloro-3,5-dicyano-phenoxy)-4-ethyl-phenyl]-N-(2-chloro-4-sulfamoyl-phenyl)-acetamide]: 180.3 to 183.1 °C.
To `Cc1cc(S(N)(=O)=O)ccc1NC(=O)Cc1ccc(Cl)c(Oc2cc(C#N)cc(C#CCN(C)C)c2)c1F` [Compound I-187, 2-{4-Chloro-3-[3-cyano-5-(3-dimethylamino-prop-1-ynyl)-phenoxy]-2-fluoro-phenyl}-N-(2-methyl-4-sulfamoyl-phenyl)-acetamide] belongs 156.2 to 158.2 °C; to `CCc1ccc(CC(=O)Nc2ccc(S(N)(=O)=O)cc2)cc1Oc1cc(Cl)ccc1Br` [Compound I-15, 2-[3-(2-Bromo-5-chloro-phenoxy)-4-ethyl-phenyl]-N-(4-sulfamoyl-phenyl)-acetamide], 193.7 to 195.9 °C; to `COc1cc(CC(=O)Nc2ccc(S(N)(=O)=O)cc2)cc(Oc2cc(Cl)cc(C#N)c2)c1` [Compound I-132, 2-[3-(3-Chloro-5-cyano-phenoxy)-5-methoxy-phenyl]-N-(4-sulfamoyl-phenyl)-acetamide], 184.1 to 185.5 °C.
As for `Cc1ccc(CC(=O)Nc2ccc(S(N)(=O)=O)cc2Cl)cc1Oc1cc(Cl)cc(C#N)c1` [Compound I-123, 2-[3-(3-Chloro-5-cyano-phenoxy)-4-methyl-phenyl]-N-(2-chloro-4-sulfamoyl-phenyl)-acetamide], the melting point lay in the range of 194 to 194.9 °C.
To `N#Cc1cc(C#N)cc(Oc2c(Cl)ccc(CC(=O)Nc3ccccc3Cl)c2F)c1` [Compound I-28, 2-[4-Chloro-3-(3,5-dicyano-phenoxy)-2-fluoro-phenyl]-N-(2-chloro-phenyl)-acetamide] belongs 182.6 to 196.5 °C.
